According to patent publication US10167517B2, “MIPOL1-ETV1 gene rearrangements” (THE REGENTS OF THE UNIVERSITY OF MICHIGAN, priority 2007, dated 2019):

Test system: LNCaP cells
Assay: Androgen regulation of gene expression by qPCR in LNCaP cells stimulated with R1881
Format: cell-based
Settings: target gene to GAPDH ratio
From the text: FIG. 6, a illustrates the tissue specificity of the 4 contiguous genes in the 14q13.3-14q21.1 region which was interrogated in the expo dataset (using Oncomine) and expression (in normalized expression units) is shown for 28 distinct tumor types and prostate cancer. FIG. 6, b and -c illustrate androgen regulation of the contiguous 14q13.3-14q21.1 genes (FIG. 6, b) and ETV1 (FIG. 6, c), as determined by qPCR in LNCaP cells with (+) or without (−) stimulation by the synthetic androgen R1881. Ratios of target gene to GAPDH (mean (n=4)+S.E.) are shown. FIG. 6, d illustrates that LNCaP and its androgen insensitive derivative, C4-2B, were profiled using a microarray (Agilent Whole Genome Microarrays), in which the top ten most differentially expressed features (LNCaP/C4-2B) are shown. FIG. 6, e-g illustrate qPCR results that show decreased expression of androgen regulated genes in C4-2B compared to LNCaP, for markers ETV1 (FIG. 6, e) and PSA (FIG. 6, f), and the 4 contiguous transcripts at 14q13.3-14q21.1 (FIG. 6, g).
Additional prostate cancer cell lines were tested to screen for ERG and ETV1 expression by quantitative PCR (qPCR), to identify additional genetic rearrangements. The following cells were tested: an immortalized benign prostate epithelial cell line (RWPE) and 8 prostate cancer cell lines (MDA-PCa 2B, LNCaP, VCaP, LAPC4, 22Rv1, NCI-H660, PC3 and DU145). Quantitative PCR (QPCR) was performed by using the oligonucleotide primers shown in Table 1 (“Fusion QPCR” and “Androgen QPCR” sections) with standard laboratory procedures and reagents (Power SYBR Green Mastermix and 7300 Real Time PCR system, Applied Biosystems, Foster City, Calif.). All oligonucleotide primers were synthesized by standard methods (performed by Integrated DNA Technologies, Coralville, Iowa). HMBS and GAPDHS, and PSA6 primers were as described previously (Vandesompele et al., Genome Biol. 3:RESEARCH0034 (2002); Specht et al., Am J. Pathol. 158: 419 (2001)). Androgen stimulation reactions were performed in quadruplicate, and all other reactions were performed in duplicate.

For `C[C@]1(O)CC[C@H]2[C@@H]3CCC4=CC(=O)CCC4=C3C=C[C@@]21C` [R1881], the “expression of ETV1 following R1881 stimulation” value (with vs without R1881, p=0.0004) was 1.8 fold, the “expression of SLC25A21 following R1881 stimulation” value (with vs without R1881, p=0.008) was 0.75 fold and the “expression of FOXA1 following R1881 stimulation” value (with vs without R1881, p=0.05) was 1.3 fold. For the same molecule, the “expression of MIPOL1 following R1881 stimulation” value (with vs without R1881, p=0.08) was 1.2 fold and the “expression of TTC6 following R1881 stimulation” value (with vs without R1881, p=0.10) was 0.70 fold.
